Test [1] relates to regulatory T cells (CD4+Foxp3+ cells). Nature of the test: Flow cytometry of immune cells at site where bFGF-containing agarose rod was embedded: regulatory T cells. The format is in vivo, ACI rats. The following applies: for ratio of Foxp3+ cells among CD4+ cells: STZ-diabetic ACI rats. How it is done:
(§1) In a polystyrene tube with an inner diameter of 4 mm, 4.5 agarose solution was poured, and the tube was then left to stand at normal temperature to allow gelation of the agarose solution. The resulting agarose gel rod was removed from the polystyrene tube, and cut into a piece having a length of 25 mm. Subsequently, the agarose gel rod was stored in a freezer at −30° C. overnight to allow freezing of water. By freeze-drying the frozen agarose rod, a porous dry agarose rod was prepared. To the dry agarose rod, 100 μl of 500 μg/ml bFGF solution (FIBLAST Spray 500, Kaken Pharmaceutical Co., Ltd.) was added dropwise to include the bFGF solution in the dry agarose rod.
(§2) On the day when the agarose rod was to be embedded, streptozotocin (STZ) (60 mg/kg body weight) was administered to ACI rats to induce diabetes. To each of the left side and the right side of the back of each ACI rat, the agarose rod having a length of 25 mm and a diameter of 4 mm containing 50 μg of bFGF was embedded. On Day 7 after the embedding, the agarose rod was pulled out. In the vicinity of each place where the agarose rod had been embedded, formation of connective tissue containing a number of blood vessels was found. This tissue was collected, and then minced with scissors, followed by homogenization. The cells were then subjected to purification by Percoll density gradient centrifugation to obtain immune cells, and the obtained immune cells were analyzed using a flow cytometer.
The ratio of Foxp3^+ cells among CD4^+ cells was 25.4% on Day 2, 24.4% on Day 7, 24.4% on Day 10, and 26.4% on Day 14 after the bFGF-containing agarose rod was embedded under the skin.
For orientation: A flow cytometer gives signals particle by particle.

For test [2], the system named is chemokine/cytokine-associated genes. Nature of the test: Gene expression analysis of tissue in vicinity of embedded bFGF-containing agarose rod. The format is in vivo, rat. Particulars: Day 7 after embedding, versus bFGF-free agarose rod group. The text has this: On Day 7 after embedding of the bFGF-containing agarose rod by the same operation as in Example 4, the tissue in the vicinity of the place where the rod was embedded was collected. The collected tissue was immediately impregnated with RNA later solution (Life Technologies) to inhibit RNA degradation. RNA in the tissue was extracted by the column method. The extracted RNA was amplified by the Express kit method (Affymetrix) and biotin-labeled, followed by hybridization with a Rat Genome 230 2.0 array (Affymetrix). Signals were read by a Hewlett-Packard GeneArray Scanner G2500A. By such a process, gene expression analysis was carried out for three tissue samples obtained from the vicinities of bFGF-containing agarose rods and three tissue samples obtained from the vicinities of control bFGF-free agarose rods. The obtained fluorescence intensities were standardized and normalized, and then subjected to statistical analysis. The standardized and normalized gene expression level was statistically compared between the bFGF-containing agarose rod group and the control bFGF-free agarose rod group. Genes showing increased expression in the bFGF-containing agarose rod group were plotted such that their values along the X-axis became positive. Log 2 conversion was carried out in terms of the X-axis. […]

The test system of test [3] is myeloid-derived suppressor cells (MDSCs). Nature of the test: Flow cytometry for CD11b/c and granulocytes at site where bFGF-containing agarose rod was embedded. The format is in vivo, ACI rats. The following applies: group in which the agarose rod-bFGF was embedded. How it is done:
as §1
as §2, with “This tissue was collected, and then minced with scissors, followed by homogenization.” left out, “cytometer. […]” for “cytometer.”

“bFGF: basic fibroblast growth factor; bFGF solution (FIBLAST Spray 500, Kaken Pharmaceutical Co., Ltd.)”: the “ratio of Foxp3+ cells among CD4+ cells” value in test [1] (Day 2 after rod with 50 μg bFGF embedded under the skin) was 25.4%; in test [1] (Day 7 after rod with 50 μg bFGF embedded under the skin), 24.4%; in test [1] (Day 10 after rod with 50 μg bFGF embedded under the skin) it was 24.4%; in test [1] (Day 14 after rod with 50 μg bFGF embedded under the skin), 26.4%. Moreover, the “increase of ratio of regulatory T cells” value in test [1] (versus about 10% in normal subcutaneous tissues and bFGF-free agarose rod-embedded rats) is 2- to 3 fold. The “expression of genes associated with migration/induction of regulatory T cells among chemokine/cytokine-associated genes” value in test [2] is given as “significant increase”. Also, in test [2], the “expression of genes not associated with migration/induction of regulatory T cells among chemokine/cytokine-associated genes” value is “significant decrease”. For the same substance, the granulocyte marker entry in test [3] is recorded as “increase”. Besides, the “myeloid-derived suppressor cells (MDSCs)” value in test [3] was “induced”.

Values taken from US10238714B2, “Method for forming an immune-tolerant site and method for attracting immunosuppressive cells” (KYOTO UNIVERSITY, priority 2015, dated 2019).
